Assay results taken from ChEMBL document CHEMBL1201862, “PubChem BioAssay data set” (2004).
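Compound exposure: 48 hours, 5 concentrations, 96-well plates. GI50 = concentration required for 50% inhibition of growth.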 Calls of active or inactive are those of the source. Rule as the data show it: active = GI50 up to about 1.1 µM and inactive = higher.

Legend:
Assay in all cases: growth of human tumour cells (NCI), 48 h
Malme-3M = tested on: Malme-3M
EKVX = tested on: EKVX
Hs-578T = tested on: Hs-578T
MDA-MB-231 = tested on: MDA-MB-231
NCI/ADR-RES = tested on: NCI/ADR-RES
HT-29 = tested on: HT-29
IGROV-1 = tested on: IGROV-1
LOX IMVI = tested on: LOX IMVI
DU-145 = tested on: DU-145
SNB-19 = tested on: SNB-19
SNB-75 = tested on: SNB-75
MDA-MB-435 = tested on: MDA-MB-435
MDA-N = tested on: MDA-N
MCF7 = tested on: MCF7
T47D = tested on: T47D
PC-3 = tested on: PC-3
CAKI-1 = tested on: CAKI-1
NCI-H522 = tested on: NCI-H522
BT-549 = tested on: BT-549

Row | SMILES | GI50 (Malme-3M) | GI50 (EKVX) | GI50 (Hs-578T) | GI50 (MDA-MB-231) | GI50 (NCI/ADR-RES) | GI50 (HT-29) | GI50 (IGROV-1) | GI50 (LOX IMVI) | GI50 (DU-145) | GI50 (SNB-19) | GI50 (SNB-75) | GI50 (MDA-MB-435) | GI50 (MDA-N) | GI50 (MCF7) | GI50 (T47D) | GI50 (PC-3) | GI50 (CAKI-1) | GI50 (NCI-H522) | GI50 (BT-549)
1 | Cc1c2c(n(CCN(C)C)c1C)NN=C(C#N)S2(=O)=O | > 100 µM (inactive) | > 100 µM (inactive) | > 100 µM (inactive) | > 100 µM (inactive) | > 100 µM (inactive) | > 100 µM (inactive) | > 100 µM (inactive) | > 100 µM (inactive) | > 100 µM (inactive) | > 100 µM (inactive) | > 100 µM (inactive) | > 100 µM (inactive) | > 100 µM (inactive) | > 100 µM (inactive) | > 100 µM (inactive) | > 100 µM (inactive) |  |  | 
2 | CCOC(=O)c1nc2ccc(C(F)(F)F)cc2nc1NCc1ccc(Cl)c(Cl)c1 | 21.8 µM (inactive) | 22.8 µM (inactive) | 20.8 µM (inactive) | 30.2 µM (inactive) | 47.1 µM (inactive) | 29.1 µM (inactive) | 20.7 µM (inactive) | 30.8 µM (inactive) |  | 28.3 µM (inactive) | 14 µM (inactive) | 23.6 µM (inactive) | 57.4 µM (inactive) | 30.4 µM (inactive) | 44.5 µM (inactive) | 22.8 µM (inactive) | 24.9 µM (inactive) | 11.4 µM (inactive) | 37 µM (inactive)
3 | O=C1c2ccccc2C(=O)c2cc(/N=N/c3c(O)ccc4ccccc34)ccc21 | > 100 µM (inactive) | 89.7 µM (inactive) | 27.7 µM (inactive) | > 100 µM (inactive) | > 100 µM (inactive) | > 100 µM (inactive) | > 100 µM (inactive) | > 100 µM (inactive) | > 100 µM (inactive) | > 100 µM (inactive) | > 100 µM (inactive) | > 100 µM (inactive) | > 100 µM (inactive) |  | > 100 µM (inactive) | > 100 µM (inactive) | > 100 µM (inactive) | > 100 µM (inactive) | > 100 µM (inactive)
4 | O=c1[nH]c2cc(C(F)(F)F)ccc2nc1C(F)(F)F | 35.2 µM (inactive) | 32.3 µM (inactive) |  | 31.3 µM (inactive) | 37.9 µM (inactive) | 36.4 µM (inactive) | 29.3 µM (inactive) | 30.8 µM (inactive) | 33.8 µM (inactive) | 35.6 µM (inactive) | 30.2 µM (inactive) | 34 µM (inactive) | 32.7 µM (inactive) | 53.6 µM (inactive) | 36.6 µM (inactive) | 37.8 µM (inactive) | 30.3 µM (inactive) | 29.4 µM (inactive) | 44.2 µM (inactive)
5 | O=[N+]([O-])/C=C/c1cn(CCCCCCCCn2cc(/C=C/[N+](=O)[O-])c3ccccc32)c2ccccc12 | > 10 µM (inactive) | > 10 µM (inactive) | 6.92 µM (inactive) | > 10 µM (inactive) | > 10 µM (inactive) | > 10 µM (inactive) | > 10 µM (inactive) | 3.51 µM (inactive) | > 10 µM (inactive) | > 10 µM (inactive) | > 10 µM (inactive) | 0.327 µM (active) | 0.61 µM (active) |  | > 10 µM (inactive) | > 10 µM (inactive) | 0.689 µM (active) | > 10 µM (inactive) | 
6 | COc1ccc(-c2c3c([nH]c(=S)c2C#N)CC(C)(C)CC3=O)cc1 | > 100 µM (inactive) | > 100 µM (inactive) | > 100 µM (inactive) | > 100 µM (inactive) |  | > 100 µM (inactive) | > 100 µM (inactive) | > 100 µM (inactive) | > 100 µM (inactive) | > 100 µM (inactive) |  |  | > 100 µM (inactive) | > 100 µM (inactive) | 59.6 µM (inactive) | > 100 µM (inactive) | > 100 µM (inactive) | 36.4 µM (inactive) | > 100 µM (inactive)
7 | Cc1ccc(NC(=O)/C(=N\Nc2ccc([N+](=O)[O-])cc2[N+](=O)[O-])C2C(=O)NC(=O)NC2=O)cc1 | > 100 µM (inactive) |  |  |  |  | 49.5 µM (inactive) | 43.2 µM (inactive) | > 100 µM (inactive) |  | > 100 µM (inactive) | 26.7 µM (inactive) |  |  |  |  |  | > 100 µM (inactive) | > 100 µM (inactive) | 
8 | O=C1/C(=C/c2ccccc2)CN(C(=O)C(Cl)(Cl)Cl)C/C1=C\c1ccccc1 | 2.11 µM (inactive) | 9.23 µM (inactive) |  |  |  | 1.23 µM (inactive) | 2.06 µM (inactive) | 0.94 µM (active) |  | 2.82 µM (inactive) | 3.27 µM (inactive) |  |  |  |  |  |  | 2.13 µM (inactive) | 
9 | CCOP(=O)(OCC)C(Cc1c[nH]c2ccccc12)C(=O)O (stereo not given) |  |  | > 100 µM (inactive) | > 100 µM (inactive) | > 100 µM (inactive) | > 100 µM (inactive) | > 100 µM (inactive) | > 100 µM (inactive) | > 100 µM (inactive) | > 100 µM (inactive) | > 100 µM (inactive) | > 100 µM (inactive) | > 100 µM (inactive) | 37.2 µM (inactive) | > 100 µM (inactive) | > 100 µM (inactive) | > 100 µM (inactive) | > 100 µM (inactive) | 
